# Measured values as given in ChEMBL document CHEMBL1154345, “Discovery of tricyclic 5,6-dihydro-1H-pyridin-2-ones as novel, potent, and orally bioavailable inhibitors of HCV NS5B polymerase” (Bioorg Med Chem Lett, 2009).
# Test system: not listed separately
# Assay: in vitro
# Details: human, liver microsomes, t1/2
row,Structure (SMILES),half-life at 1 µM
1,CS(=O)(=O)Nc1ccc2c(c1)S(=O)(=O)N=C(C1=C(O)[C@@H]3C4CCC(CC4)[C@@H]3N(Cc3ccc(F)cc3F)C1=O)N2,> 1 h
2,Cc1cc(CN2C(=O)C(C3=NS(=O)(=O)c4cc(NS(C)(=O)=O)ccc4N3)=C(O)[C@@H]3C4CCC(CC4)[C@@H]32)ccc1F,> 1 h
3,CS(=O)(=O)Nc1ccc2c(c1)S(=O)(=O)N=C(C1=C(O)[C@@H]3C4CCC(CC4)[C@@H]3N(Cc3ccc(F)cc3Cl)C1=O)N2,> 1 h
4,COc1cccc(CN2C(=O)C(C3=NS(=O)(=O)c4cc(NS(C)(=O)=O)ccc4N3)=C(O)[C@@H]3C4CCC(CC4)[C@@H]32)c1,> 1 h
5,CS(=O)(=O)Nc1ccc2c(c1)S(=O)(=O)N=C(C1=C(O)[C@@H]3C4CCC(CC4)[C@@H]3N(Cc3ccccc3Cl)C1=O)N2,> 1 h
6,CS(=O)(=O)Nc1ccc2c(c1)S(=O)(=O)N=C(C1=C(O)[C@@H]3C4CCC(CC4)[C@@H]3N(Cc3ccc(Cl)cc3)C1=O)N2,> 1 h
7,CS(=O)(=O)Nc1ccc2c(c1)S(=O)(=O)N=C(C1=C(O)[C@@H]3C4CCC(CC4)[C@@H]3N(Cc3ccccc3)C1=O)N2,> 1 h
8,CS(=O)(=O)Nc1ccc2c(c1)S(=O)(=O)N=C(C1=C(O)C3CC=CCC3N(Cc3ccc(F)cc3)C1=O)N2 (racemic),> 1 h

# Same assay, conditions: human, microsomes, t1/2
row,Structure (SMILES),half-life at 1 µM
1,CS(=O)(=O)Nc1ccc2c(c1)S(=O)(=O)N=C(C1=C(O)[C@@H]3[C@@H]4CC[C@@H](C4)[C@@H]3N(Cc3ccc(F)cc3)C1=O)N2,> 1 h
2,CS(=O)(=O)Nc1ccc2c(c1)S(=O)(=O)N=C(C1=C(O)[C@@H]3C4CCC(CC4)[C@@H]3N(Cc3cccc(F)c3)C1=O)N2,> 1 h
3,CS(=O)(=O)Nc1ccc2c(c1)S(=O)(=O)N=C(C1=C(O)[C@@H]3C4CCC(CC4)[C@@H]3N(Cc3ccc(F)cc3)C1=O)N2,> 1 h
4,CS(=O)(=O)Nc1ccc2c(c1)S(=O)(=O)N=C(C1=C(O)[C@@H]3[C@@H]4CC[C@@H](C4)[C@@H]3N(Cc3cccs3)C1=O)N2,> 1 h

# Test system: not listed separately
# Assay: Cytotoxicity against human HuH7 cells assessed as GAPDH release
# Assay type: cell-based, Huh-7
# Details: not given
row,Structure (SMILES),CC50
1,CS(=O)(=O)Nc1ccc2c(c1)S(=O)(=O)N=C(C1=C(O)[C@@H]3[C@@H]4CC[C@@H](C4)[C@@H]3N(Cc3ccc(F)cc3)C1=O)N2,> 1000 nM
2,CS(=O)(=O)Nc1ccc2c(c1)S(=O)(=O)N=C(C1=C(O)[C@@H]3C4CCC(CC4)[C@@H]3N(Cc3ccc(F)cc3)C1=O)N2,> 1000 nM
3,CS(=O)(=O)Nc1ccc2c(c1)S(=O)(=O)N=C(C1=C(O)C3CC=CCC3N(Cc3ccc(F)cc3)C1=O)N2 (racemic),> 1000 nM

# Test system: Hepatitis C virus
# Assay: microbe, parasite or virus in culture
# Assay type: functional, organism-based, Hepacivirus hominis, genotype 1b, Huh-luc/neo-ET
# Details: Hepatitis C virus, genotype 1b, Huh-luc/neo-ET, 72 h
# Description: Antiviral activity against HCV-1b infected human Huh-luc/neo-ET replicon cells after 72 hrs by luciferase based replicon assay
row,Structure (SMILES),EC50
1,CS(=O)(=O)Nc1ccc2c(c1)S(=O)(=O)N=C(C1=C(O)[C@@H]3[C@@H]4CC[C@@H](C4)[C@@H]3N(Cc3ccc(F)cc3)C1=O)N2,7 nM
2,CS(=O)(=O)Nc1ccc2c(c1)S(=O)(=O)N=C(C1=C(O)[C@@H]3C4CCC(CC4)[C@@H]3N(Cc3ccc(F)cc3F)C1=O)N2,2 nM
3,Cc1cc(CN2C(=O)C(C3=NS(=O)(=O)c4cc(NS(C)(=O)=O)ccc4N3)=C(O)[C@@H]3C4CCC(CC4)[C@@H]32)ccc1F,2 nM
4,CS(=O)(=O)Nc1ccc2c(c1)S(=O)(=O)N=C(C1=C(O)[C@@H]3C4CCC(CC4)[C@@H]3N(Cc3ccc(F)cc3Cl)C1=O)N2,1 nM
5,COc1cccc(CN2C(=O)C(C3=NS(=O)(=O)c4cc(NS(C)(=O)=O)ccc4N3)=C(O)[C@@H]3C4CCC(CC4)[C@@H]32)c1,5 nM
6,CS(=O)(=O)Nc1ccc2c(c1)S(=O)(=O)N=C(C1=C(O)[C@@H]3C4CCC(CC4)[C@@H]3N(Cc3ccccc3Cl)C1=O)N2,17 nM
7,CS(=O)(=O)Nc1ccc2c(c1)S(=O)(=O)N=C(C1=C(O)[C@@H]3C4CCC(CC4)[C@@H]3N(Cc3cccc(F)c3)C1=O)N2,4 nM
8,CS(=O)(=O)Nc1ccc2c(c1)S(=O)(=O)N=C(C1=C(O)[C@@H]3C4CCC(CC4)[C@@H]3N(Cc3ccc(Cl)cc3)C1=O)N2,31 nM
9,CS(=O)(=O)Nc1ccc2c(c1)S(=O)(=O)N=C(C1=C(O)[C@@H]3C4CCC(CC4)[C@@H]3N(Cc3ccc(F)cc3)C1=O)N2,0.8 nM
10,CS(=O)(=O)Nc1ccc2c(c1)S(=O)(=O)N=C(C1=C(O)[C@@H]3[C@@H]4CC[C@@H](C4)[C@@H]3N(Cc3cccs3)C1=O)N2,27 nM
11,CS(=O)(=O)Nc1ccc2c(c1)S(=O)(=O)N=C(C1=C(O)[C@@H]3C4CCC(CC4)[C@@H]3N(Cc3ccccc3)C1=O)N2,1 nM
12,CS(=O)(=O)Nc1ccc2c(c1)S(=O)(=O)N=C(C1=C(O)C3CC=CCC3N(Cc3ccc(F)cc3)C1=O)N2 (racemic),7 nM

# Test system: not listed separately
# Assay: in vitro
# Details: human, liver microsomes
# Description: Metabolic stability in human liver microsomes assessed as compound remaining after 60 mins at 1 uM
row,Structure (SMILES),"remaining at 1 h, 1 µM"
1,CS(=O)(=O)Nc1ccc2c(c1)S(=O)(=O)N=C(C1=C(O)[C@@H]3C4CCC(CC4)[C@@H]3N(Cc3ccc(F)cc3F)C1=O)N2,100%
2,Cc1cc(CN2C(=O)C(C3=NS(=O)(=O)c4cc(NS(C)(=O)=O)ccc4N3)=C(O)[C@@H]3C4CCC(CC4)[C@@H]32)ccc1F,81%
3,CS(=O)(=O)Nc1ccc2c(c1)S(=O)(=O)N=C(C1=C(O)[C@@H]3C4CCC(CC4)[C@@H]3N(Cc3ccc(F)cc3Cl)C1=O)N2,100%
4,COc1cccc(CN2C(=O)C(C3=NS(=O)(=O)c4cc(NS(C)(=O)=O)ccc4N3)=C(O)[C@@H]3C4CCC(CC4)[C@@H]32)c1,50%
5,CS(=O)(=O)Nc1ccc2c(c1)S(=O)(=O)N=C(C1=C(O)[C@@H]3C4CCC(CC4)[C@@H]3N(Cc3ccccc3Cl)C1=O)N2,100%
6,CS(=O)(=O)Nc1ccc2c(c1)S(=O)(=O)N=C(C1=C(O)[C@@H]3C4CCC(CC4)[C@@H]3N(Cc3ccc(Cl)cc3)C1=O)N2,100%
7,CS(=O)(=O)Nc1ccc2c(c1)S(=O)(=O)N=C(C1=C(O)[C@@H]3C4CCC(CC4)[C@@H]3N(Cc3ccccc3)C1=O)N2,82%
8,CS(=O)(=O)Nc1ccc2c(c1)S(=O)(=O)N=C(C1=C(O)C3CC=CCC3N(Cc3ccc(F)cc3)C1=O)N2 (racemic),87%

# Same assay, conditions: human, microsomes
row,Structure (SMILES),"remaining at 1 h, 1 µM"
1,CS(=O)(=O)Nc1ccc2c(c1)S(=O)(=O)N=C(C1=C(O)[C@@H]3[C@@H]4CC[C@@H](C4)[C@@H]3N(Cc3ccc(F)cc3)C1=O)N2,85%
2,CS(=O)(=O)Nc1ccc2c(c1)S(=O)(=O)N=C(C1=C(O)[C@@H]3C4CCC(CC4)[C@@H]3N(Cc3cccc(F)c3)C1=O)N2,88%
3,CS(=O)(=O)Nc1ccc2c(c1)S(=O)(=O)N=C(C1=C(O)[C@@H]3C4CCC(CC4)[C@@H]3N(Cc3ccc(F)cc3)C1=O)N2,86%
4,CS(=O)(=O)Nc1ccc2c(c1)S(=O)(=O)N=C(C1=C(O)[C@@H]3[C@@H]4CC[C@@H](C4)[C@@H]3N(Cc3cccs3)C1=O)N2,63%

# Test system: Hepatitis C virus
# Assay: microbe, parasite or virus in culture
# Assay type: functional, organism-based, Hepacivirus hominis, subtype 1a, Huh-lunet
# Details: Hepatitis C virus, subtype 1a, Huh-lunet, 96 h
# Description: Antiviral activity against HCV-1a infected in human Huh-lunet cells after 4 days by luciferase based replicon assay
row,Structure (SMILES),EC50
1,CS(=O)(=O)Nc1ccc2c(c1)S(=O)(=O)N=C(C1=C(O)[C@@H]3[C@@H]4CC[C@@H](C4)[C@@H]3N(Cc3ccc(F)cc3)C1=O)N2,65 nM
2,CS(=O)(=O)Nc1ccc2c(c1)S(=O)(=O)N=C(C1=C(O)[C@@H]3C4CCC(CC4)[C@@H]3N(Cc3ccc(F)cc3F)C1=O)N2,280 nM
3,Cc1cc(CN2C(=O)C(C3=NS(=O)(=O)c4cc(NS(C)(=O)=O)ccc4N3)=C(O)[C@@H]3C4CCC(CC4)[C@@H]32)ccc1F,16 nM
4,CS(=O)(=O)Nc1ccc2c(c1)S(=O)(=O)N=C(C1=C(O)[C@@H]3C4CCC(CC4)[C@@H]3N(Cc3ccc(F)cc3Cl)C1=O)N2,25 nM
5,COc1cccc(CN2C(=O)C(C3=NS(=O)(=O)c4cc(NS(C)(=O)=O)ccc4N3)=C(O)[C@@H]3C4CCC(CC4)[C@@H]32)c1,270 nM
6,CS(=O)(=O)Nc1ccc2c(c1)S(=O)(=O)N=C(C1=C(O)[C@@H]3C4CCC(CC4)[C@@H]3N(Cc3ccccc3Cl)C1=O)N2,660 nM
7,CS(=O)(=O)Nc1ccc2c(c1)S(=O)(=O)N=C(C1=C(O)[C@@H]3C4CCC(CC4)[C@@H]3N(Cc3cccc(F)c3)C1=O)N2,98 nM
8,CS(=O)(=O)Nc1ccc2c(c1)S(=O)(=O)N=C(C1=C(O)[C@@H]3C4CCC(CC4)[C@@H]3N(Cc3ccc(Cl)cc3)C1=O)N2,250 nM
9,CS(=O)(=O)Nc1ccc2c(c1)S(=O)(=O)N=C(C1=C(O)[C@@H]3C4CCC(CC4)[C@@H]3N(Cc3ccc(F)cc3)C1=O)N2,6 nM
10,CS(=O)(=O)Nc1ccc2c(c1)S(=O)(=O)N=C(C1=C(O)[C@@H]3[C@@H]4CC[C@@H](C4)[C@@H]3N(Cc3cccs3)C1=O)N2,820 nM
11,CS(=O)(=O)Nc1ccc2c(c1)S(=O)(=O)N=C(C1=C(O)[C@@H]3C4CCC(CC4)[C@@H]3N(Cc3ccccc3)C1=O)N2,55 nM
12,CS(=O)(=O)Nc1ccc2c(c1)S(=O)(=O)N=C(C1=C(O)C3CC=CCC3N(Cc3ccc(F)cc3)C1=O)N2 (racemic),81 nM
